Measurements taken from patent US10106526B2, “Inhibitors of cyclin-dependent kinase 7 (CDK7)” (SYROS PHARMACEUTICALS, INC., priority 2014, dated 2018).

Experiments:
[1] = molecular target: CDK7/Cyclin H/MAT1 trimeric complex (Homo sapiens, UniProt P50613); test: CDK7 kinase assay, Caliper/LabChip EZ Reader (Biortus Biosciences); type: biochemical; conditions: CDK7/Cyclin H/MAT1 10 nM, ATP 2 mM, FAM-CDK7tide 2 μM, 30 min incubation, read-out: CDK7 Inhibition (IC50)
Description: Compounds of the invention were further assayed for CDK7 activity at Biortus Biosciences (Jiangyin, Jiangsu Province, P.R. of China) using a CDK7 kinase assay developed with a Caliper/LabChip EZ Reader (Perkin Elmer, Waltham, Mass.). […] The incubation period was chosen such that the total fraction of phosphorylated peptide product produced was <20% for the uninhibited kinase.

A673 cells = test: Inhibition of proliferation of A673 cells (CyQUANT, 72 hour); type: cell-based, human; conditions: 72 hour proliferation
Description: A673 cells are a cell line derived from human muscle Ewing's sarcoma. Representative compounds of the invention were tested at different concentrations (from 4 μM to 126.4 pM; 0.5 log serial dilutions) for their ability to inhibit the proliferation of A673 cells. Known CDK inhibitors flavopiridol and triptolide were used as positive controls. Cells were grown in Dulbecco's Modified Eagle's Medium, +10% FBS+1 mM Sodium Pyruvate. The cells were cultured at 37° C. in a humidified chamber in the presence of 5% CO2. Proliferation assays were conducted over a 72 hour time period. CyQUANT® (Life Technologies, Chicago, Ill. USA) was used to assess the anti-proliferative effects of the compounds following manufacturer's directions and utilizing the reagents supplied with the CyQUANT® kit. In this table, “A” represents an IC50 of less than 500 nM; “B” an IC50 of between 500 nM and 5 μM; and “C” an IC50 of greater than 5 μM.

CDK7 = molecular target: T1, CDK7 (Homo sapiens, UniProt P50613); test: CDK7 kinase activity, Adapta kinase assay (Life Technologies); type: biochemical; conditions: Adapta kinase assay at Life Technologies; 10 μM down to 0.514 nM, 3-fold serial dilutions; read-out: CDK7 Inhibition (IC50)
T1 construct: purchased Life Technologies (Adapta kinase assay service)
Description: Compounds of the invention were assayed for CDK7 activity at Life Technologies™ (Grand Island, N.Y.) using their commercially available Adapta® kinase assay services. Compounds were tested at concentrations ranging from 10 μM down to 0.514 nM in a series of 3-fold serial dilutions. Details of these assays, including substrates used, are available on the Life Technologies web site (http://www.lifetechnologies.com/us/en/home/life-science/drug-discovery/target-and-lead-identification-and-validation/kinasebiology/kinase-activity-assays.html).

Jurkat cells = test: Inhibition of proliferation of Jurkat cells (CellTiter-Glo, 72 hour); type: cell-based, human; conditions: Homo sapiens, 10 μM to 316 pM
Description: Jurkat cells are a cell line established from a human T cell leukemia. Representative compounds of the invention were tested at different concentrations (from 10 μM to 316 pM; 0.5 log serial dilutions) for their ability to inhibit the proliferation of Jurkat cells. Known CDK inhibitors flavopiridol and triptolide were used as positive controls. Cells were grown in RPMI 1640+10% FBS+1% Glutamax. The cells were supplemented with FBS (Life Technologies) and 100 U·mL^− penicillin, 100 μg·mL^− streptomycin (Invitrogen) and cultured at 37° C. in a humidified chamber in the presence of 5% CO2. Proliferation assays were conducted over a 72 hour time period. CellTiter-Glo® (Promega Corporation, Madison, Wis. USA) was used to assess the anti-proliferative effects of the compounds following manufacturer's directions and utilizing the reagents supplied with the CellTiter-Glo® kit. In this table, “A” represents an IC50 of less than 500 nM; “B” an IC50 of between 500 nM and 5 μM; and “C” an IC50 of greater than 5 μM.

CDK7/Cyclin H/MAT1 trimeric complex, sequence (P50613 whole entry): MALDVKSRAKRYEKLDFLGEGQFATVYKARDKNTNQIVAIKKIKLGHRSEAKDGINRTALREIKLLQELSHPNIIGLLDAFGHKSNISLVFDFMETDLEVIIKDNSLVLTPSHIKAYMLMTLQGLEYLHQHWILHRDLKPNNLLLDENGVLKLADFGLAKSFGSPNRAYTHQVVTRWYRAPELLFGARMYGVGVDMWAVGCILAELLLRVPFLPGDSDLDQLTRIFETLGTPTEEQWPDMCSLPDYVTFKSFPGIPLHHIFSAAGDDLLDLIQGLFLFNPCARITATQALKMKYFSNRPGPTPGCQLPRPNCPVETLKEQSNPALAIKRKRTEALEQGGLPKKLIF
CDK7/Cyclin H/MAT1 trimeric complex, sequence (P51946 whole entry partner): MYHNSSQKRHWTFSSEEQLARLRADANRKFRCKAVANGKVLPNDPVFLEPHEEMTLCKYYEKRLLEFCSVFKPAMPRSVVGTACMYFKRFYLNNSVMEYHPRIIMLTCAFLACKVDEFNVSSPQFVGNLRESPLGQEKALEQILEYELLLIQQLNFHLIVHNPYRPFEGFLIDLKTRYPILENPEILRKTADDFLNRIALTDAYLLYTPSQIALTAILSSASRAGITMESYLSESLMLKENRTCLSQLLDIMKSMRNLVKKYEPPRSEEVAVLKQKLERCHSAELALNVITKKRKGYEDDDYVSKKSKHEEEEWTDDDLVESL
CDK7/Cyclin H/MAT1 trimeric complex, sequence (P51948 whole entry partner): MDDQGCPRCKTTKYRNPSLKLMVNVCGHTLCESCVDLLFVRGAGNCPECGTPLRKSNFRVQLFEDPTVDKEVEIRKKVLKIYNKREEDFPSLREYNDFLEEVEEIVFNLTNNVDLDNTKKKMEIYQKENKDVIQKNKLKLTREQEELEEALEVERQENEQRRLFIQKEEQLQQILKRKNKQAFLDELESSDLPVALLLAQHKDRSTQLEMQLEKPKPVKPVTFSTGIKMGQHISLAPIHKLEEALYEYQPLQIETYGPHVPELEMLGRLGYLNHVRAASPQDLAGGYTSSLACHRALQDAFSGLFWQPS
T1 sequence (P50613 whole entry): as the sequence (P50613 whole entry) above
T1 sequence (P51946 whole entry partner): as the sequence (P51946 whole entry partner) above
T1 sequence (P51948 whole entry partner): as the sequence (P51948 whole entry partner) above

IC50 [1] | IC50 (CDK7) | IC50 (Jurkat cells) | SMILES | IC50 (A673 cells; Homo sapiens) | IC50 (A673 cells)
100 to 1000 nM |  |  | C=CC(=O)N1CCN([C@H]2CCC[C@@H](Nc3ncc(Cl)c(-c4cnc5ccccn45)n3)C2)CC1 [Compound 414, 1-[4-[(1S,3R)-3-[(5-chloro-4-imidazo[1,2-a]pyridin-3-yl-pyrimidin-2-yl)amino]cyclohexyl]piperazin-1-yl]prop-2-en-1-One] | < 500 nM | 
< 100 nM |  |  | C=CC(=O)N1CCN([C@H]2CCC[C@@H](Nc3ncc(Cl)c(-c4c[nH]c5ccc(C)cc45)n3)C2)CC1 [Compound 340, 1-(4-((1S,3R)-3-(5-chloro-4-(5-methyl-1H-indol-3-yl)pyrimidin-2-ylamino)cyclohexyl)piperazin-1-yl)prop-2-en-1-One] | < 500 nM | 
< 100 nM |  |  | C=CC(=O)N[C@H]1CCN([C@H]2CCC[C@@H](Nc3ncc(Cl)c(-c4c[nH]c5ccccc45)n3)C2)C1 [Compound 370, N—((S)-1-((1S,3R)-3-((5-chloro-4-(1H-indol-3-yl)pyrimidin-2-yl)amino)cyclohexyl)pyrrolidin-3-yl)acrylamide] | < 500 nM | 
> 1000 nM |  |  | CN(C)C/C=C/C(=O)N1CCCC(N2CC(Nc3ncc(Cl)c(-c4c[nH]c5ccccc45)n3)C2)C1 (centres unmarked) [compound 389] |  | < 500 nM
< 100 nM |  |  | C=CC(=O)Nc1cnc(CN[C@H]2CCC[C@@H](Nc3ncc(Cl)c(-c4n[nH]c5ccccc45)n3)C2)nc1 [compound 405] |  | < 500 nM
100 to 1000 nM |  |  | CN(C)C/C=C/C(=O)N1CCN([C@H]2CCC[C@@H](Nc3ncc(Cl)c(C4C(=O)Nc5ccccc54)n3)C2)CC1 (stereo partly drawn) [Compound 293, 3-(5-chloro-2-(((1R,3S)-3-(4-((E)-4-(dimethylamino)but-2-enoyl)piperazin-1-yl)cyclohexyl)amino)pyrimidin-4-yl)indolin-2-One] | < 500 nM | 
< 100 nM |  |  | CN(C)C/C=C/C(=O)N1CCN([C@H]2CCC[C@@H](Nc3ncc(Cl)c(-c4cnc5ccccn45)n3)C2)CC1 [compound 400] |  | < 500 nM
< 100 nM |  |  | CN(C)C/C=C/C(=O)N1CC(F)(F)C[C@H]1C(=O)N[C@H]1CCC[C@@H](Nc2ncc(Cl)c(-c3n[nH]c4ccccc34)n2)C1 [compound 404] |  | < 500 nM
> 1000 nM |  |  | C=CC(=O)N1CCN([C@H]2CCC[C@@H](Nc3ncc(Cl)c(-c4c[nH]c5ccc(OC)cc45)n3)C2)CC1 [Compound 375, 1-(4-((1S,3R)-3-(5-chloro-4-(5-methoxy-1H-indol-3-yl)pyrimidin-2-ylamino)cyclohexyl)piperazin-1-yl)prop-2-en-1-One] | < 500 nM | 
< 100 nM |  |  | C=CC(=O)N1CCN([C@H]2CCC[C@@H](Nc3ncc(Cl)c(-c4c[nH]c5ccccc45)n3)C2)C(=O)C1 [compound 410] |  | < 500 nM
100 to 1000 nM |  |  | CN(C)C/C=C/C(=O)Nc1ccc(C(=O)N[C@H]2CCC[C@@H](Nc3ncc(Cl)c(C4C(=O)Nc5ccccc54)n3)C2)nc1 (stereo partly drawn) [Compound 282, N-((1S,3R)-3-(5-Chloro-4-(2-oxoindolin-3-yl)pyrimidin-2-ylamino)cyclohexyl)-5-((E)-4-(dimethylamino)but-2-enamido)picolinamide] | < 500 nM | 
< 100 nM |  |  | CN(C)C/C=C/C(=O)N1CC(F)(F)C[C@H]1C(=O)N[C@H]1CCC[C@@H](Nc2ncc(C#N)c(-c3c[nH]c4ccccc34)n2)C1 [compound 396] |  | < 500 nM
< 100 nM |  |  | C=CC(=O)NC1CN(C2CCCC(Nc3ncc(Cl)c(-c4c[nH]c5ccccc45)n3)C2)C1 (mixture of isomers) [Compound 255] |  | < 500 nM
< 100 nM |  |  | C=CC(=O)N1CCC(CNC2(C)CCCC(Nc3ncc(Cl)c(-c4c[nH]c5ccccc45)n3)C2)CC1 (centres unmarked) [Compound 268] |  | < 500 nM
< 100 nM |  |  | C=CC(=O)N1CCN([C@@]23CCC[C@@](Nc4ncc(Cl)c(-c5c[nH]c6ccccc56)n4)(CC2)C3)CC1 [Compound 409, 1-(4-((1S,5R)-5-(5-chloro-4-(1H-indol-3-yl)pyrimidin-2-ylamino)bicyclo[3.2.1]octan-1-yl)piperazin-1-yl)prop-2-en-1-One] | < 500 nM | 
< 100 nM |  |  | CCc1cnc(N[C@@H]2CCC[C@](C)(NCc3ccc(NC(=O)/C=C/CN(C)C)cn3)C2)nc1-c1c[nH]c2ccccc12 [Compound 411, (E)-4-(dimethylamino)-N-[6-[[[(1S,3R)-3-[[5-ethyl-4-(1H-indol-3-yl)pyrimidin-2-yl]amino]-1-methylcyclohexyl]amino]methyl]-3-pyridyl]but-2-enamide] | < 500 nM | 
100 to 1000 nM |  |  | CCc1cnc(N[C@@H]2CCC[C@](C)(NC(=O)c3ccc(NC(=O)/C=C/CN(C)C)cn3)C2)nc1-c1c(C)[nH]c2ccccc12 [Compound 412, 5-[[(E)-4-(dimethylamino)but-2-enoyl]amino]-N-[(1S,3R)-3-[[5-ethyl-4-(2-methyl-1H-indol-3-yl)pyrimidin-2-yl]amino]-1-methyl-cyclohexyl]pyridine-2-carboxamide] | < 500 nM | 
< 100 nM |  |  | C=CC(=O)N1CCN(C2CCCC(Nc3ncc(Cl)c(-c4c[nH]c5ccccc45)n3)C2)C(C)C1 (centres unmarked) [Compound 260] |  | < 500 nM
< 100 nM |  |  | C=C(F)C(=O)N1CCN([C@H]2CCC[C@@H](Nc3ncc(Cl)c(-c4c[nH]c5ccccc45)n3)C2)CC1 [compound 401] |  | < 500 nM
100 to 1000 nM |  |  | C=C(F)C(=O)Nc1ccc(C(=O)N[C@H]2CCC[C@@H](Nc3ncc(Cl)c(-c4c[nH]c5ccccc45)n3)C2)nc1 [compound 402] |  | < 500 nM
< 100 nM |  |  | CN(C)C/C=C/C(=O)N1CCC[C@@H](NCc2ccc(Nc3ncc(Cl)c(-c4c[nH]c5ccccc45)n3)cc2)C1 [Compound 415, (R,E)-1-(3-((4-((5-chloro-4-(1H-indol-3-yl)pyrimidin-2-yl)amino)benzyl)amino)piperidin-1-yl)-4-(dimethylamino)but-2-en-1-One] | < 500 nM | 
 | < 100 nM | > 5000 nM | CN(C)C/C=C/C(=O)Nc1cnn(CC2(O)CCC(Nc3ncc(Cl)c(-c4c[nH]c5ccccc45)n3)CC2)c1 (centres unmarked) [Compound 114, (E)-N-(1-((4-(5-chloro-4-(1H-indol-3-yl)pyrimidin-2-ylamino)-1-hydroxycyclohexyl)methyl)-1H-pyrazol-4-yl)-4-(dimethylamino)but-2-enamide] | > 5000 nM | 
 | 100 to 1000 nM | > 5000 nM | O=C(/C=C/CN1CCOCC1)N1CCC(C(=O)N2CC[C@H](Nc3ncc(Cl)c(-c4c[nH]c5ccccc45)n3)C2)CC1 [Compound 211, (S,E)-1-(4-(3-((5-chloro-4-(1H-indol-3-yl)pyrimidin-2-yl)amino)pyrrolidine-1-carbonyl)piperidin-1-yl)-4-morpholinobut-2-en-1-One] | < 500 nM | 
 | < 100 nM | < 500 nM | C=CC(=O)N1CCN(CC2(O)CCC[C@@H](Nc3ncc(Cl)c(-c4c[nH]c5ccccc45)n3)C2)CC1 (single isomer, unassigned) [Compound 187] | < 500 nM | 
 | < 100 nM | < 500 nM | C=CC(=O)N1CCC(CN(C)[C@H]2CCC[C@@H](Nc3ncc(Cl)c(-c4c[nH]c5ccccc45)n3)C2)CC1 [Compound 167] | < 500 nM | 
 | < 100 nM | 500 to 5000 nM | C=CC(=O)N1CCCC(CNC2CCC(Nc3ncc(Cl)c(-c4c[nH]c5ccccc45)n3)CC2)C1 (centres unmarked) [Compound 190, 1-[3-[[[4-[[5-chloro-4-(1H-indol-3-yl)pyrimidin-2-yl]amino]cyclohexyl]amino]methyl]-1-piperidyl]prop-2-en-1-One] | < 500 nM | 

SMILES | IC50 [1] | IC50 (CDK7) | IC50 (Jurkat cells) | IC50 (A673 cells; Homo sapiens) | IC50 (A673 cells)
CN(C)C/C=C/C(=O)Nc1ccc(CN(C)[C@H]2CCC[C@@H](Nc3ncc(Cl)c(-c4c[nH]c5ccccc45)n3)C2)nc1 [Compound 377, (E)-N-(6-((((1S,3R)-3-((5-chloro-4-(1H-indol-3-yl)pyrimidin-2-yl)amino)cyclohexyl)(methyl)amino)methyl)pyridin-3-yl)-4-(dimethylamino)but-2-enamide] | < 100 nM |  |  | < 500 nM | 
